Test results from ChEMBL document CHEMBL5634134, “Design, synthesis, and biological evaluation of novel 4,4'-bipyridine derivatives acting as CDK9-Cyclin T1 protein-protein interaction inhibitors against triple-negative breast cancer” (Eur J Med Chem, 2023).
Active and inactive are the calls of the source. No cut-off for these calls is given here.

Experiments:
HeLa = assay: cells; settings: Homo sapiens, 72 h
A549 = assay: cells; settings: Homo sapiens, A549, 72 h
[1] = Cytotoxicity against human L02 cells assessed as inhibition of cell growth incubated for 72 hrs by MTT assay; assay type: toxicity, cell-based
MDA-MB-231 [2] = assay: cells; settings: Homo sapiens, MDA-MB-231, 72 h
MDA-MB-231 [3] = assay: Antiproliferative activity against human MDA-MB-231 cells assessed as inhibition of cell growth incubated for 48 hrs by MTT assay; assay type: functional, cell-based; settings: MDA-MB-231, 48 h
MDA-MB-231 [4] = assay: Inhibition of RNA Polymerase II CTD phosphorylation at ser2 residue in human MDA-MB-231 cells at 1 uM incubated for 24 hrs by Western blotting analysis; assay type: cell-based
MDA-MB-231 [5] = assay: Antiproliferative activity against human MDA-MB-231 cells assessed as inhibition of cell growth by MTT assay; assay type: functional, cell-based
[6] = Cytotoxicity against human L02 cells assessed as inhibition of cell growth by MTT assay; assay type: toxicity, cell-based
MDA-MB-468 = assay: Antiproliferative activity against human MDA-MB-468 cells assessed as inhibition of cell growth by MTT assay; assay type: functional, cell-based
[7] = Cytotoxicity against human MCF-10A cells assessed as inhibition of cell growth by MTT assay; assay type: toxicity, cell-based
[8] = Cytotoxicity against HEK293T cells assessed as inhibition of cell growth by MTT assay; assay type: toxicity, cell-based, HEK-293T; settings: human
T47D = assay: Antiproliferative activity against human T47D cells assessed as inhibition of cell growth by MTT assay; assay type: functional, cell-based
BT-549 = assay: Antiproliferative activity against human BT-549 cells assessed as inhibition of cell growth by MTT assay; assay type: functional, cell-based

Row | Structure (SMILES) | IC50 (HeLa) [µM] | IC50 (A549) [µM] | IC50 (MDA-MB-231 [2]) [µM] | IC50 at 72 h [1] [µM] | further results
1 | COc1cccc2c1C(=O)c1c(O)c3c(c(O)c1C2=O)C[C@@](O)(C(=O)CO)C[C@@H]3O[C@H]1C[C@H](N)[C@H](O)[C@H](C)O1 [DOXORUBICIN] | – | – | – | – | IC50 (MDA-MB-231 [3]): 0.153 µM
2 | O=C(Nc1cc(-c2ccnc(N3CCC(O)CC3)c2)ccn1)c1ccc(C(F)(F)F)cc1 | 0.257 | 1.65 | 0.112 | 1.96 | inhibition (MDA-MB-231 [4]): Active
3 | COc1ccc(CNc2cc(-c3ccnc(N4CCC(O)CC4)c3)ccn2)cc1 | > 10 | > 10 | 3.21 | > 10 | inhibition (MDA-MB-231 [4]): Active
4 | CCOc1cc(/C=N/O)ccc1OCC#CC1c2c(cc3c(c2OC)OCO3)CCN1C (stereo not drawn) | – | – | – | – | IC50 (MDA-MB-231 [5]): 6.2 µM; IC50 [6]: > 100 µM; IC50 (MDA-MB-468): 7.4 µM; IC50 [7]: 35.5 µM; IC50 [8]: > 100 µM; IC50 (T47D): 52.5 µM; IC50 (BT-549): 12.6 µM
5 | O=C(Nc1cc(-c2ccnc(N3CCC(O)CC3)c2)ccn1)c1ccccc1Cl | > 10 | > 10 | > 10 | > 10 | –
6 | COc1cc(C(=O)Nc2cc(-c3ccnc(N4CCC(O)CC4)c3)ccn2)cc(OC)c1OC | 5.73 | 5.68 | 1.74 | > 10 | inhibition (MDA-MB-231 [4]): Active
7 | CC1CCN(c2cc(-c3ccnc(NC(=O)c4ccc(C(F)(F)F)cc4)c3)ccn2)CC1 | 7.79 | > 10 | 3.18 | > 10 | –
8 | COc1ccc(CCC(=O)Nc2cc(-c3ccnc(N4CCC(O)CC4)c3)ccn2)cc1 | > 10 | > 10 | > 10 | > 10 | inhibition (MDA-MB-231 [4]): Active
9 | COc1ccc(C(=O)Nc2cc(-c3ccnc(N4CCC(C)CC4)c3)ccn2)cc1 | 1.59 | 2.71 | 0.184 | 4.17 | –
10 | O=C(Nc1cc(-c2ccnc(N3CCC(O)CC3)c2)ccn1)c1cc(Cl)cc(Cl)c1 | > 10 | > 10 | > 10 | > 10 | –

Second part, led by results:

Row | IC50 (HeLa) [µM] | IC50 (A549) [µM] | IC50 (MDA-MB-231 [2]) [µM] | Structure (SMILES) | IC50 at 72 h [1] [µM] | further results
11 | > 10 | > 10 | > 10 | CC1CCN(c2cc(-c3ccnc(NC(=O)c4ccc(F)cc4)c3)ccn2)CC1 | > 10 | –
12 | 3.28 | 2.4 | 0.261 | Cc1ccc(C(=O)Nc2cc(-c3ccnc(N4CCC(O)CC4)c3)ccn2)cc1 | 0.875 | inhibition (MDA-MB-231 [4]): Active
13 | > 10 | 4.1 | 0.485 | COc1ccc(C(=O)Nc2cc(-c3ccnc(N4CCN(C)CC4)c3)ccn2)cc1 | > 10 | –
14 | 0.276 | 1.85 | 0.585 | O=C(Nc1cc(-c2ccnc(N3CCCC(CO)C3)c2)c(Cl)cn1)c1ccc(F)cc1 (stereo not drawn) | > 10 | –
15 | > 10 | > 10 | 3.14 | Cc1cccc(C(=O)Nc2cc(-c3ccnc(N4CCC(C)CC4)c3)ccn2)c1 | 6.37 | –
16 | 3.85 | > 10 | 1.28 | Cc1ccc(C(=O)Nc2cc(-c3ccnc(N4CCC(C)CC4)c3)ccn2)cc1 | > 10 | –
17 | 0.527 | > 10 | 0.367 | COc1ccc(C(=O)Nc2cc(-c3ccnc(N(C)CCO)c3)ccn2)cc1 | 1.12 | –
